Experimental data reported in patent publication US12215116B2, “Arginase inhibitors and methods of use” (Merck Sharp & Dohme LLC, priority 2018, dated 2025).
Counter-ions that a name gives are not always drawn.

Legend:
[1] = system: opossum internal anal sphincter muscle; details: cited from earlier work
guinea pigs = details: nebulizer treatment, allergic asthma model; cited from earlier work
[2] = system: rabbit and human penile corpus cavernosum; details: rabbit and human tissue; cited from earlier work
live male rabbits = details: cited from earlier work
[3] = system: corpus cavernosum of the diabetic man; details: ex vivo; cited from earlier work
live female rabbits = details: cited from earlier work
[4] = system: animal model of multiple sclerosis (experimental autoimmune encephalomyelitis); details: cited from earlier work
Arginase (ARG1 enzyme) = target: T1, Arginase (ARG1 enzyme) (Homo sapiens, UniProt P05089); test: Arginase Thioornithine Generating Assay (TOGA); type: biochemical; details: 1.88 nM arginase, thioarginine substrate, fluorescence readout
T1 construct: made in house; host or cells: Escherichia coli
T1 sequence (P05089 1-322): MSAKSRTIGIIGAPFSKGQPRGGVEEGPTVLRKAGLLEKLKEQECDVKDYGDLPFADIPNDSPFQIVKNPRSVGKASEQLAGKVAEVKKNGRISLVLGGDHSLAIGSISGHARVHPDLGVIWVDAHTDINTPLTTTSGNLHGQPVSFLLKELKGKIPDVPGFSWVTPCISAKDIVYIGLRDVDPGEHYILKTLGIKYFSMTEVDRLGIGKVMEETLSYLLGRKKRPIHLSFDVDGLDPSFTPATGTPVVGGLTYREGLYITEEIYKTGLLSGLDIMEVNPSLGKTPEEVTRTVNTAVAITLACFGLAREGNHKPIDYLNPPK

SMILES	IC50 (Arginase (ARG1 enzyme))	further results
N[C@@H](CCCCB(O)O)C(=O)O [ABH, (S)-2-amino-6-boronohexanoic acid]	–	relaxation of internal anal sphincter muscle [1]: relax this muscle; airway hyperresponsiveness (guinea pigs): prevents airway hyperresponsiveness; nitric oxide-dependent relaxation of penile corpus cavernosum [2]: enhances the nitric oxide-dependent relaxation of this tissue; erectile response (live male rabbits): enhances the erectile response; nitric oxide biosynthesis [3]: restores nitric oxide biosynthesis; engorgement response in the genitalia (live female rabbits): enhances the engorgement response; disease score [4]: improves the disease score
N#C[C@@]1(CCCB(O)O)CCN[C@@H]1C(=O)O [Example 88, (2S,3S)-3-(3-boronopropyl)-3-cyanopyrrolidine-2-carboxylic acid]	13.4 nM	–
NC(=O)[C@@]1(CCCB(O)O)CCN[C@@H]1C(=O)O [Example 89, (2S,3S)-3-(3-boronopropyl)-3-carbamoylpyrrolidine-2-carboxylic acid]	289 nM	–
O=C(O)C[C@@]1(CCCB(O)O)[C@H](O)CN[C@@H]1C(=O)O [Example 90, (2S,3R,4S)-3-(3-boronopropyl)-3-(carboxymethyl)-4-hydroxypyrrolidine-2-carboxylic acid]	2910 nM	–
O=C(O)[C@H]1NCC(CO)[C@H]1CCCB(O)O (stereo partly drawn) [Example 91, (2S,3R)-3-(3-boronopropyl)-4-(hydroxymethyl)pyrrolidine-2-carboxylic acid]	20 nM	–
O=C(O)[C@H]1NC[C@@H](O)[C@@]1(F)CCCB(O)O [Example 92A, (2R,3R,4R)-3-(3-boronopropyl)-3-fluoro-4-hydroxypyrrolidine-2-carboxylic acid]	> 10000 nM	–
O=C(O)[C@H]1NC[C@H](O)[C@@]1(F)CCCB(O)O [Example 92B, (2R,3R,4S)-3-(3-boronopropyl)-3-fluoro-4-hydroxypyrrolidine-2-carboxylic acid]	124 nM	–
O=C(O)[C@H]1NC[C@@H](O)[C@]1(F)CCCB(O)O [Example 92C, (2R,3S,4R)-3-(3-boronopropyl)-3-fluoro-4-hydroxypyrrolidine-2-carboxylic acid]	> 10000 nM	–
O=C(O)[C@H]1NCC[C@H]1SCCB(O)O [Example 93, (2R,3R)-3-((2-boronoethyl)thio)pyrrolidine-2-carboxylic acid hydrochloride]	92.1 nM	–
N[C@@]1(C(=O)O)CNC[C@@]1(CO)CCCB(O)O [Example 94C]	> 10000 nM	–
N[C@]1(C(=O)O)CNC[C@]1(CO)CCCB(O)O [Example 94D]	> 10000 nM	–
